In ChEMBL document CHEMBL5724914, “Linking interpersonal differences in gut microbiota composition and drug biotransformation activity” (2024):

Experiments:
[1] = (§1) The drug is tested on Z-030 corresponding to mouse gut metagenome with ENA study accession number: PRJEB37062 and ENA sample accession number: ERS12561829 for biotransformation under anaerobic condition. The drug concentrations were measured over 9 timepoints collected between 0 and 24 hours of incubation by liquid-chromatography-coupled mass spectrometry (LC–MS); conditions: 2 µM
[2] = as §1, with “Z-027” for “Z-030”, “to” for “to mouse gut”, “ERS12561826” for “ERS12561829”; conditions: 2 µM
[3] = as §1, with “Z-017” for “Z-030”, “ERS12561816” for “ERS12561829”; conditions: 2 µM
[4] = as §1, with “Z-012” for “Z-030”, “to” for “to mouse gut”, “ERS12561812” for “ERS12561829”; conditions: 2 µM
[5] = as §1, with “Z-010” for “Z-030”, “to” for “to mouse gut”, “ERS12561810” for “ERS12561829”; conditions: 2 µM
[6] = as §1, with “Z-008” for “Z-030”, “to” for “to mouse gut”, “ERS12561808” for “ERS12561829”; conditions: 2 µM
[7] = as §1, with “Z-007” for “Z-030”, “rat” for “mouse”, “ERS12561807” for “ERS12561829”; conditions: 2 µM
[8] = as §1, with “Z-005” for “Z-030”, “to” for “to mouse gut”, “ERS12561805” for “ERS12561829”; conditions: 2 µM
[9] = as §1, with “WLS-350” for “Z-030”, “human” for “mouse”, “ERS12561789” for “ERS12561829”; conditions: 2 µM
[10] = as §1, with “WLS-077” for “Z-030”, “human” for “mouse”, “ERS12561750” for “ERS12561829”; conditions: 2 µM
[11] = as §1, with “WLS-073” for “Z-030”, “human” for “mouse”, “ERS12561749” for “ERS12561829”; conditions: 2 µM
[12] = as §1, with “WLS-052” for “Z-030”, “human” for “mouse”, “ERS12561747” for “ERS12561829”; conditions: 2 µM
[13] = as §1, with “WLS-038” for “Z-030”, “human” for “mouse”, “ERS12561745” for “ERS12561829”; conditions: 2 µM
[14] = human gut metagenome, 24 h, 2 µM
[15] = human gut metagenome, 24 h, 2 µM; remark: listed apart in the source
[16] = human gut metagenome, 24 h, 2 µM; remark: listed apart in the source
[17] = human gut metagenome, 24 h, 2 µM; remark: listed apart in the source
[18] = human gut metagenome, 24 h, 2 µM; remark: listed apart in the source
[19] = human gut metagenome, 24 h, 2 µM; remark: listed apart in the source
[20] = human gut metagenome, 24 h, 2 µM; remark: listed apart in the source
Further: call rule not given here.

| Structure (SMILES) | Bacterial Biotransformation [1] | Bacterial Biotransformation [2] | Bacterial Biotransformation [3] | Bacterial Biotransformation [4] | Bacterial Biotransformation [5] | Bacterial Biotransformation [6] | Bacterial Biotransformation [7] | Bacterial Biotransformation [8] | Bacterial Biotransformation [9] | Bacterial Biotransformation [10] | Bacterial Biotransformation [11] | Bacterial Biotransformation [12] | Bacterial Biotransformation [13] | Bacterial Biotransformation [14] | Bacterial Biotransformation [15] | Bacterial Biotransformation [16] | Bacterial Biotransformation [17] | Bacterial Biotransformation [18] | Bacterial Biotransformation [19] | Bacterial Biotransformation [20] |
| --- | --- | --- | --- | --- | --- | --- | --- | --- | --- | --- | --- | --- | --- | --- | --- | --- | --- | --- | --- | --- |
| Cc1ccccc1N1C(=O)c2cc(S(N)(=O)=O)c(Cl)cc2NC1C (stereo not given) [METOLAZONE] | Compound NOT metabolized | Compound NOT metabolized | Compound NOT metabolized | Compound NOT metabolized | Compound NOT metabolized | Compound NOT metabolized | Compound NOT metabolized | Compound NOT metabolized | Compound metabolized | Compound NOT metabolized | Compound NOT metabolized | Compound metabolized | Compound NOT metabolized | Compound NOT metabolized | Compound metabolized | Compound NOT metabolized | Compound NOT metabolized | Compound metabolized | Compound NOT metabolized | Compound NOT metabolized |
| COCCc1ccc(OCC(O)CNC(C)C)cc1.COCCc1ccc(OCC(O)CNC(C)C)cc1.O=C(O)C(O)C(O)C(=O)O (stereo not given) [METOPROLOL TARTRATE] | Compound NOT metabolized | Compound NOT metabolized | Compound NOT metabolized | Compound NOT metabolized | Compound metabolized | Compound NOT metabolized | Compound NOT metabolized | Compound NOT metabolized | Compound metabolized | Compound NOT metabolized | Compound NOT metabolized | Compound NOT metabolized | Compound NOT metabolized | Compound NOT metabolized | Compound NOT metabolized | Compound metabolized | Compound NOT metabolized | Compound NOT metabolized | Compound metabolized | Compound NOT metabolized |
| COc1c(C)c2c(c(O)c1C/C=C(\C)CCC(=O)OCCN1CCOCC1)C(=O)OC2 [MYCOPHENOLATE MOFETIL] | Compound NOT metabolized | Compound metabolized | Compound metabolized | Compound metabolized | Compound metabolized | Compound metabolized | Compound metabolized | Compound metabolized | Compound metabolized | Compound metabolized | Compound metabolized | Compound metabolized | Compound metabolized | Compound metabolized | Compound metabolized | Compound metabolized | Compound metabolized | Compound metabolized | Compound metabolized | Compound metabolized |
| CCN(CC)CCOC(=O)C(Cc1cccc2ccccc12)CC1CCCO1.O=C(O)C(=O)O (stereo not given) [NAFRONYL OXALATE] | Compound NOT metabolized | Compound NOT metabolized | Compound NOT metabolized | Compound metabolized | Compound metabolized | Compound NOT metabolized | Compound NOT metabolized | Compound metabolized | Compound metabolized | Compound metabolized | Compound metabolized | Compound metabolized | Compound metabolized | Compound metabolized | Compound metabolized | Compound metabolized | Compound metabolized | Compound NOT metabolized | Compound metabolized | Compound NOT metabolized |
| C=CCN1CC[C@]23c4c5ccc(O)c4O[C@H]2C(=O)CC[C@@]3(O)[C@H]1C5 [NALOXONE] | Compound NOT metabolized | Compound NOT metabolized | Compound NOT metabolized | Compound NOT metabolized | Compound NOT metabolized | Compound NOT metabolized | Compound NOT metabolized | Compound NOT metabolized | Compound NOT metabolized | Compound NOT metabolized | Compound NOT metabolized | Compound NOT metabolized | Compound NOT metabolized | Compound NOT metabolized | Compound NOT metabolized | Compound NOT metabolized | Compound NOT metabolized | Compound metabolized | Compound NOT metabolized | Compound NOT metabolized |
| CCc1nn(CCCN2CCN(c3cccc(Cl)c3)CC2)c(=O)n1CCOc1ccccc1 [NEFAZODONE] | Compound NOT metabolized | Compound NOT metabolized | Compound NOT metabolized | Compound NOT metabolized | Compound NOT metabolized | Compound NOT metabolized | Compound NOT metabolized | Compound NOT metabolized | Compound NOT metabolized | Compound NOT metabolized | Compound NOT metabolized | Compound metabolized | Compound metabolized | Compound metabolized | Compound NOT metabolized | Compound metabolized | Compound metabolized | Compound metabolized | Compound metabolized | Compound metabolized |
| CN1CCOC(c2ccccc2)c2ccccc2C1 (stereo not given) [NEFOPAM] | Compound NOT metabolized | Compound NOT metabolized | Compound NOT metabolized | Compound NOT metabolized | Compound NOT metabolized | Compound NOT metabolized | Compound NOT metabolized | Compound NOT metabolized | Compound metabolized | Compound NOT metabolized | Compound NOT metabolized | Compound NOT metabolized | Compound NOT metabolized | Compound metabolized | Compound metabolized | Compound NOT metabolized | Compound NOT metabolized | Compound NOT metabolized | Compound metabolized | Compound NOT metabolized |
| Cc1ccnc2c1NC(=O)c1cccnc1N2C1CC1 [NEVIRAPINE] | Compound NOT metabolized | Compound NOT metabolized | Compound NOT metabolized | Compound NOT metabolized | Compound NOT metabolized | Compound NOT metabolized | Compound NOT metabolized | Compound NOT metabolized | Compound metabolized | Compound NOT metabolized | Compound NOT metabolized | Compound NOT metabolized | Compound NOT metabolized | Compound metabolized | Compound NOT metabolized | Compound metabolized | Compound metabolized | Compound metabolized | Compound metabolized | Compound NOT metabolized |
